Several values for one entry are separate records, joined by “and”; a condition that tells them apart may be missing. Identical values can stand only once. Like-named read-outs stand apart in the source and are kept apart here.
Key:
[1] = system: MCF-7; assay: Antiproliferative MTT assay, MCF-7; assay type: cell-based, human; conditions: mean ± SE
Method: (§1) Human T-cell leukemia (Jurkat) and human B-cell leukemia (SEM and RS4;11) cells were grown in RPMI-1640 medium (Gibco, Milano, Italy). Breast adenocarcinoma (MCF-7), human cervix carcinoma (HeLa), human lung adenocarcinoma (A549) and human colon adenocarcinoma (HT-29) cells were grown in DMEM medium (Gibco, Milano, Italy), all supplemented with 115 units/mL penicillin G (Gibco, Milano, Italy), 115 μg/mL streptomycin (Invitrogen, Milano, Italy), and 10% fetal bovine serum (FBS; Invitrogen, Milano, Italy). Stock solutions (10 mM) of the different compounds were obtained by dissolving them in DMSO. Individual wells of a 96-well tissue culture microtiter plate were inoculated with 100 μL of complete medium containing 8 × 10^3 cells. The plates were incubated at 37 °C in a humidified 5% CO2 incubator for 18 h prior to the experiments. After medium removal, 100 μL of fresh medium containing the test compound at different concentrations was added to each well in triplicate and incubated at 37 °C for 72 h. The percentage of DMSO in the medium never exceeded 0.25%. This was also the maximum DMSO concentration in all cell-based assays described below.

[2] = system: RS 4;11; assay: Antiproliferative MTT assay, RS 4;11; assay type: cell-based, human; conditions: mean ± SE
Method: as §1

[3] = system: HT-29; assay: Antiproliferative MTT assay, HT-29; assay type: cell-based, human; conditions: mean ± SE
Method: as §1

[4] = system: HeLa; assay: Antiproliferative MTT assay, HeLa; assay type: cell-based, human; conditions: 72 h, mean ± SE
Method: as §1

[5] = system: A549; assay: Antiproliferative MTT assay, A549; assay type: cell-based, human; conditions: mean ± SE
Method: as §1

[6] = system: SEM cells; assay: Antiproliferative MTT assay, SEM; assay type: cell-based, human; conditions: 72 h, mean ± SE
Method: as §1

[7] = system: Jurkat; assay: Antiproliferative MTT assay, Jurkat; assay type: cell-based, human; conditions: 72 h, mean ± SE
Method: as §1

[8] = system: tubulin; assay: Inhibition of [3H]colchicine binding to tubulin; conditions: tubulin 1 μM, [3H]colchicine 5 μM
Method: (§2) To evaluate the effect of the compounds on tubulin assembly in vitro[41], varying concentrations of compounds were preincubated with 10 μM bovine brain tubulin in 0.8 M monosodium glutamate (pH adjusted to 6.6 with HCl in a 2.0 M stock solution) at 30 °C and then cooled to 0 °C. After addition of 0.4 mM GTP, the mixtures were transferred to 0 °C cuvettes in a recording spectrophotometer and warmed to 30 °C. Tubulin assembly was followed turbidimetrically at 350 nm. […] The capacity of the test compounds to inhibit colchicine binding to tubulin was measured as described, except that the reaction mixtures contained 1 μM tubulin, 5 μM [^3H]colchicine and 1 or 5 μM test compound.

[9] = system: bovine brain tubulin; assay: Inhibition of tubulin polymerization; assay type: biochemical; conditions: tubulin at 10 μM; read-out: Tubulin assembly IC50 ± S.D
Method: as §2

[10] = system: panel of seven human tumor cell lines; assay: Antiproliferative activity, range over panel of seven human tumor cell lines; assay type: cell-based
Method: as §1

| Compound | IC50 ([1]; Homo sapiens, MCF7, 72 h) [nM] | IC50 ([2]; Homo sapiens, RS4-11, 72 h) [nM] | IC50 ([3]; Homo sapiens, HT-29, 72 h) [nM] | melting point [°C] | IC50 ([4]; Homo sapiens, HeLa) [nM] | IC50 ([5]; Homo sapiens, A549, 72 h) [nM] | IC50 ([6]; Homo sapiens) [nM] | IC50 ([7]; Homo sapiens, Jurkat) [nM] | Colchicine binding % inhibition ± S.D, 5 μM drug [8] | IC50 [9] [nM] | other results |
| --- | --- | --- | --- | --- | --- | --- | --- | --- | --- | --- | --- |
| COc1ccc(-c2oc(C)nc2-c2cc(OC)c(OC)c(OC)c2)cc1Cl [Compound 4h, 5-(3-Chloro-4-methoxyphenyl)-4-(3,4,5-trimethoxyphenyl)-2-methyloxazole] | 144 ± 64.3 | 47 ± 13.9 | 207 ± 93 | 150 to 152 | 169 ± 75.5 | 138 ± 13.7 | 233 ± 34.6 | 512 ± 92.7 |  |  |  |
| COc1cc(-c2oc(C)nc2-c2ccc(C)cc2)cc(OC)c1OC [Compound 5d, 5-(3,4,5-Trimethoxyphenyl)-2-methyl-4-p-tolyloxazole] | 360 ± 52.6 | 635 ± 387 | 523 ± 61.8 | 128 to 129 | 148 ± 55.3 | 2580 ± 289 | 352 ± 77.8 | 922 ± 76.6 |  |  |  |
| COc1ccc(-c2nc(C)sc2-c2cc(OC)c(OC)c(OC)c2)cc1 [Compound 3e, 2-methyl-4-(4′-methoxyphenyl)-5-(3′,4’,5′-trimethoxyphenyl)thiazole, reference compound] | 1930 ± 448 | 2970 ± 738 | 3700 ± 263 |  | 1980 ± 780 | 2760 ± 1200 | 1980 ± 780 | 7200 ± 586 |  |  |  |
| COc1cc(-c2oc(C)nc2-c2ccc3ccccc3c2)cc(OC)c1OC [Compound 5a, 5-(3,4,5-Trimethoxyphenyl)-2-methyl-4-(naphthalen-3-yl)oxazole] | 5.2 ± 2.4 | 250 ± 89.3 | 315 ± 145 | 95 to 97 | 37 ± 14.4 | 45.2 ± 12.5 |  | 638 ± 154 | 64 ± 4% | 1600 ± 100 |  |
| COc1cc(-c2oc(C)nc2-c2ccc(Cl)cc2)cc(OC)c1OC [Compound 5c, 4-(4-Chlorophenyl)-5-(3,4,5-trimethoxyphenyl)-2-methyloxazole] | > 10000 | 815 ± 406 | > 10000 | 149 to 151 | 2560 ± 475 | > 10000 | 6570 ± 500 | 5250 ± 0.934 |  |  |  |
| COc1ccc(-c2oc(C)nc2-c2cc(OC)c(OC)c(OC)c2)cc1 [Compound 4e, 4-(3,4,5-Trimethoxyphenyl)-5-(4-methoxyphenyl)-2-methyloxazole] | 27.7 ± 12 | 7.6 ± 2.3 | 40.8 ± 19.7 | 134 to 136 | 10.8 ± 4.7 | 179 ± 36.3 | 35.6 ± 12.5 | 18.7 ± 6 | 78 ± 3% | 950 ± 100 | Colchicine binding % inhibition ± S.D, 1 μM drug [8]: 47 ± 4% |
| 5-(3,4,5-Trimethoxyphenyl)-4-(3-methoxyphenyl)-2-methyloxazole [Compound 4f] |  |  |  |  |  |  |  |  |  |  | IC50 ([1]; 72 h): > 10000 nM; IC50 ([2]; 72 h): 5330 ± 167 nM; IC50 ([3]; 72 h): > 10000 nM; IC50 [4]: > 10000 nM; IC50 ([5]; 72 h): > 10000 nM; IC50 [6]: 3630 ± 171 nM; IC50 [7]: 5230 ± 88.2 nM |
| CCOc1ccc(-c2oc(C)nc2-c2cc(OC)c(OC)c(OC)c2)cc1Cl [Compound 4j, 5-(3-Chloro-4-ethoxyphenyl)-4-(3,4,5-trimethoxyphenyl)-2-methyloxazole] | 1.5 ± 0.6 | 20.2 ± 5.4 | 0.9 ± 0.5 | 124 to 126 | 4.2 ± 1.3 | 20.3 ± 11.4 | 51 ± 13.5 | 77.7 ± 6.1 | 53 ± 3% | 1800 ± 100 |  |
| COc1cc(-c2nc(C)oc2-c2ccc(C)cc2)cc(OC)c1OC [Compound 4d, 4-(3,4,5-Trimethoxyphenyl)-2-methyl-5-p-tolyloxazole] | 244 ± 74.2 | 25.3 ± 3.2 | 53 ± 24.6 | 110 to 112 | 31 ± 16 | 92.3 ± 21.5 | 134 ± 39.5 | 102 ± 22.6 | 86% and 82 ± 3% | 660 | Colchicine binding % inhibition ± S.D, 1 μM drug [8]: 55 ± 3%; IC50 ([10]; Homo sapiens, read-out: IC50 values, range over the cell line panel): 25 to 243 nM |
| 5-(3,4,5-Trimethoxyphenyl)-4-(4-chlorophenyl)-2-methyloxazole [Compound 4c] |  |  |  |  |  |  |  |  |  |  | IC50 ([1]; 72 h): 2590 ± 447 nM; IC50 ([2]; 72 h): 840 ± 260 nM; IC50 ([3]; 72 h): 1400 ± 384 nM; IC50 [4]: 2820 ± 169 nM; IC50 ([5]; 72 h): 8780 ± 2310 nM; IC50 [6]: 2210 ± 256 nM; IC50 [7]: 5580 ± 888 nM |
| COc1ccc(-c2nc(C)oc2-c2cc(OC)c(OC)c(OC)c2)cc1 [Compound 5e, 5-(3,4,5-Trimethoxyphenyl)-4-(4-methoxyphenyl)-2-methyloxazole] | 83.8 ± 20.2 | 17.3 ± 4.2 | 12.3 ± 5.9 | 108 to 110 | 24 ± 10.5 | 243 ± 51.5 | 96.6 ± 22.5 | 43.6 ± 12.3 | 54 ± 3% | 2600 ± 300 |  |
| COc1cc(-c2oc(C)nc2-c2ccc(F)cc2)cc(OC)c1OC [Compound 5b, 4-(4-Fluorophenyl)-5-(3,4,5-trimethoxyphenyl)-2-methyloxazole] | > 10000 | > 10000 | > 10000 | 132 to 133 | > 10000 | > 10000 | > 10000 | 9000 ± 577 |  |  | IC50 ([10]; Homo sapiens, read-out: IC50 values against all cell lines screened): > 9000 nM |
| 5-(3,4,5-Trimethoxyphenyl)-4-(4-fluorophenyl)-2-methyloxazole [Compound 4b] |  |  |  |  |  |  |  |  |  |  | IC50 ([1]; 72 h): > 10000 nM; IC50 ([2]; 72 h): > 10000 nM; IC50 ([3]; 72 h): > 10000 nM; IC50 [4]: > 10000 nM; IC50 ([10]; read-out: IC50 values against all cell lines screened): > 9000 nM; IC50 ([5]; 72 h): > 10000 nM; IC50 [6]: 9550 ± 2050 nM; IC50 [7]: > 10000 nM |

Reference: PMC5390315 (Scientific Reports, 2017)
